Data taken from patent US20030219785A1, “Targeted drug delivery methods” (Vanderbilt University, priority 2002, published 2003).
“Also recorded” adds a separate entry of the source.

Tests used:
GL-261 tumors = test: Tumor volume assessment, GL-261; assay type: in vivo, mouse; conditions: group 3: cisplatin 0.08 mg tail vein days 1-4, no irradiation
Description: H460 cell line forms tumor in nude mice. […] Forty mice bearing GI-261 tumors on their right hind limbs were divided eight groups (five mice per group). An equal number of large and intermediate size (11-15 mm) tumors were present in each group. The first group received no treatment as the control group. The second group received radiation therapy (3 Gy×2 fractions) on days 1 and 3. Irradiated mice were immobilized in […] chambers and the entire body was shielded with lead, except for tumor bearing hind limb. The third group received 0.08 mg/100 μl of cisplatin (Sigma) in PBS by tail vein injection on days 1, 2, 3 and 4. The forth group received 0.5 mg of nanomag beads-10 μg of WGA-0.08 mg cisplatin cocktail in 100 μl PBS by tail vein injection on days 1, 2, 3 and 4. The fifth group received irradiation of 3 Gy on days 1 and 3 and the same treatments as group 3 after irradiation on days 1, 2, 3 and 4. […] Tumors volumes were measured 3 times weekly using skim calipers as described previously (see […]., et al., Nat. Med. 1:786-791 (1995); Hanson, et al., Radiation Research 142:281-287 (1995)) starting on day 1 and ending on the eighth measurement, or when the tumor volume reached 5 times that of the beginning volumes. Data was calculated as the percentage of original (day 1) tumor volume and graphed as fractional tumor volume+/-standard deviation (SD) for each treatment group. […]

H460 tumors = test: Tumor volume assessment, H460; assay type: in vivo, mouse; conditions: irradiation 3 Gy x2 + cisplatin 0.08 mg days 1-4
Procedure: H460 cell line forms tumor in nude mice. […] Twenty mice bearing H460 tumors with a range of 10-13 mm of diameter on their right hind limbs were divided into four groups (five mice per group). The first group received no treatment as the control group. The second group received radiation therapy (3 Gy×2 fraction) on days 1 and 3. The third group received radiation as […] and 0.08 mg/100 μl of cisplatin in PBS by tail vein injection after irradiation on days 1, 2, 3 and 4. The forth group received radiation as […] and 0.5 mg of nanomag beads-10 μg of WGA-0.08 mg of cisplatin cocktail in 100 μl PBS by tail vein injection after irradiation on days 1, 2, 3 and 4 with 15 minutes of magnetic force field after each time injection. Tumors volumes were measured 3 times weekly using skim calipers as described previously (see […]., et al., Nat. Med. 1:786-791 (1995); Hanson, et al., Radiation Research 142:281-287 (1995)) starting on day 1 and ending on the eighth measurement, or when the tumor volume reached 5 times that of the beginning volumes. Data was calculated as the percentage of original (day 1) tumor volume and graphed as fractional tumor volume+/-standard deviation (SD) for each treatment group. […]

[1] = test system: inflamed irradiated vasculature of LLC tumor; test: WGA-FITC binding in LLC tumor vascular window model; assay type: in vivo, mouse; conditions: LLC window irradiated 2.5 Gy vs 0 Gy; 100 μl WGA-FITC tail vein; pictures 60 min after injection
[2] = test system: endothelial cells of tumors; test: Electron microscopy of WGA binding; assay type: in vivo

Row | Compound | tumor growth delay (GL-261 tumors) [days] | delay of tumor growth (H460 tumors) [days] | WGA-FITC binding to tumor vasculature [1] | location of WGA binding [2]
1 | N.N.[Cl][Pt][Cl] [cisplatin] | 3 to 4 | 11 |  | 
2 | wheat germ agglutinin [WGA] |  |  | efficiently and specifically bind; also recorded: much greater binding ability | most WGA binding was located at endothelial intercellular gaps
